# According to US12473304B2, “Heterocyclic PAD4 inhibitors” (BRISTOL-MYERS SQUIBB COMPANY, priority 2020, dated 2025):
# Molecular target: human PAD4 (hPAD4) (Homo sapiens (Human), UniProt Q9UM07)
# Assay: RFMS Human PAD4 Functional Assay 1
# Type: biochemical
# Settings: RFMS assay 1; 5 nM hPAD4, 250 μM BAEE substrate, 50 μM calcium, 37° C.
# In short: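 Recombinant hPAD4 (5 nM) was preincubated with compound (top 50 μM, 0.5% DMSO) for 30 min at 37 °C, then reacted with 250 μM BAEE for 90 min at 37 °C in pH 7.5 HEPES buffer with 50 μM calcium and 5 μM TPEN. Product was derivatized with phenyl glyoxal and quantified by RapidFire MS.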
# Chain of human PAD4 (hPAD4) (Q9UM07 whole entry): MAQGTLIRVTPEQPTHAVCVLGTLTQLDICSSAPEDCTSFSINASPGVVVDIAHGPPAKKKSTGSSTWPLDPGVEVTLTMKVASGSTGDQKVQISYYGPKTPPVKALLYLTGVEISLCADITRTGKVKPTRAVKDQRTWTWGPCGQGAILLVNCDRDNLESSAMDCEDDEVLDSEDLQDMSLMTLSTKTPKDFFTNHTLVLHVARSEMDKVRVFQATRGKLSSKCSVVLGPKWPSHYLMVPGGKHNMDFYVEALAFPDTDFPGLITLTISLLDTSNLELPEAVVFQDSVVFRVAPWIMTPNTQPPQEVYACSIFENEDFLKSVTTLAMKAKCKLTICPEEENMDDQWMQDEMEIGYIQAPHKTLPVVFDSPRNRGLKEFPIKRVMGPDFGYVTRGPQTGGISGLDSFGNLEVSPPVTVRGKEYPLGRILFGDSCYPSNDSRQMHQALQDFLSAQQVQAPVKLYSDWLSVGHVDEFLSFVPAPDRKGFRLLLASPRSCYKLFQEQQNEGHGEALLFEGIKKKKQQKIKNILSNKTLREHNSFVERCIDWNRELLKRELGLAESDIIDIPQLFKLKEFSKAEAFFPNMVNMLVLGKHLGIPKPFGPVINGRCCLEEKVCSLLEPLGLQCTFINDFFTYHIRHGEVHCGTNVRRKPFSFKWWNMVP
row,Compound,IC50
1,"Cc1c(-c2cc3cccc(C4CCN(C(=O)[C@@H](C)O)CC4)c3n2CC2CC2)nn2cc(C(=O)N3CC4CCC3[C@@H]4N)ccc12 (stereo partly drawn) [Example 473, (2R)-1-(4-(2-(6-((7R)-7-Amino-2-azabicyclo[2.2.1]heptane-2-carbonyl)-3-methylpyrazolo[1,5-a]pyridin-2-yl)-1-(cyclopropylmethyl)-1H-indol-7-yl)piperidin-1-yl)-2-hydroxypropan-1-one]",3 nM
2,"Cc1c(-c2cc3cccc(C4CCN(C(=O)c5cccs5)CC4)c3n2CC2CC2)nn2cc(C(=O)N3C[C@H](N)C[C@@H](F)C3)ccc12 [Example 474, ((3R,5R)-3-Amino-5-fluoropiperidin-1-yl)(2-(1-(cyclopropylmethyl)-7-(1-(thiophene-2-carbonyl)piperidin-4-yl)-1H-indol-2-yl)-3-methylpyrazolo[1,5-a]pyridin-6-yl)methanone]",70 nM
3,"Cc1c(-c2cc3cccc(C4CCN(C(=O)c5cccs5)CC4)c3n2CC2CC2)nn2cc(C(=O)N3CC4CCC3[C@@H]4N)ccc12 (stereo partly drawn) [Example 475, (4-(2-(6-((7R)-7-Amino-2-azabicyclo[2.2.1]heptane-2-carbonyl)-3-methylpyrazolo[1,5-a]pyridin-2-yl)-1-(cyclopropylmethyl)-1H-indol-7-yl)piperidin-1-yl)(thiophen-2-yl)methanone]",20 nM
4,"CC(=O)N1CCC(c2cccc3cc(-c4nn5cc(C(=O)N6CC7CCC6[C@@H]7N)ccc5c4C)n(CC4CC4)c23)CC1 (stereo partly drawn) [Example 477, 1-(4-(2-(6-((7R)-7-Amino-2-azabicyclo[2.2.1]heptane-2-carbonyl)-3-methylpyrazolo[1,5-a]pyridin-2-yl)-1-(cyclopropylmethyl)-1H-indol-7-yl)piperidin-1-yl)ethan-1-one]",20 nM
5,"COCC(=O)N1CCC(c2cccc3cc(-c4nn5cc(C(=O)N6C[C@H](N)C[C@@H](F)C6)ccc5c4C)n(CC4CC4)c23)CC1 [Example 478, 1-(4-(2-(6-((3R,5R)-3-Amino-5-fluoropiperidine-1-carbonyl)-3-methylpyrazolo[1,5-a]pyridin-2-yl)-1-(cyclopropylmethyl)-1H-indol-7-yl)piperidin-1-yl)-2-methoxyethan-1-one]",130 nM
6,"COCC(=O)N1CCC(c2cc(F)cc3cc(-c4nn5cc(C(=O)N6CCC[C@@H](N)C6)cc(OC)c5c4C)n(CC4CC4)c23)CC1 [Example 480, (R)-1-(4-(2-(6-(3-aminopiperidine-1-carbonyl)-4-methoxy-3-methylpyrazolo[1,5-a]pyridin-2-yl)-1-(cyclopropylmethyl)-5-fluoro-1H-indol-7-yl)piperidin-1-yl)-2-Methoxyethan-1-one]",140 nM
7,"COCC(=O)N1CCC(c2cc(F)cc3cc(-c4nn5cc(C(=O)N6C[C@H](N)C[C@@H](F)C6)cc(OC)c5c4C)n(CC4CC4)c23)CC1 [Example 481, 1-(4-(2-(6-((3R,5R)-3-Amino-5-fluoropiperidine-1-carbonyl)-4-methoxy-3-methylpyrazolo[1,5-a]pyridin-2-yl)-1-(cyclopropylmethyl)-5-fluoro-1H-indol-7-yl)piperidin-1-yl)-2-methoxyethan-1-one]",120 nM
8,"COc1cc(C(=O)N2C[C@H](N)C[C@@H](F)C2)cn2nc(-c3cc4cc(F)cc(C5CCN(C(C)=O)CC5)c4n3CC3CC3)c(C)c12 [Example 482, 1-(4-(2-(6-((3R,5R)-3-Amino-5-fluoropiperidine-1-carbonyl)-4-methoxy-3-methylpyrazolo[1,5-a]pyridin-2-yl)-1-(cyclopropylmethyl)-5-fluoro-1H-indol-7-yl)piperidin-1-yl)ethan-1-one]",60 nM
9,"Cc1c(-c2cc3cc(F)cc(C4CCN(C(=O)[C@H]5CC[C@@H](O)CC5)CC4)c3n2CC2CC2)nn2cc(C(=O)N3C[C@H](N)C[C@@H](F)C3)ccc12 [Example 486, ((3R,5R)-3-Amino-5-fluoropiperidin-1-yl)(2-(1-(cyclopropylmethyl)-5-fluoro-7-(1-((1s,4s)-4-hydroxycyclohexane-1-carbonyl)piperidin-4-yl)-1H-indol-2-yl)-3-methylpyrazolo[1,5-a]pyridin-6-yl)methanone]",70 nM
10,"Cc1c(-c2cc3cc(F)cc(C4CCN(C(=O)[C@H]5CC[C@H](O)CC5)CC4)c3n2CC2CC2)nn2cc(C(=O)N3C[C@H](N)C[C@@H](F)C3)ccc12 [Example 487, ((3R,5R)-3-Amino-5-fluoropiperidin-1-yl)(2-(1-(cyclopropylmethyl)-5-fluoro-7-(1-((1r,4r)-4-hydroxycyclohexane-1-carbonyl)piperidin-4-yl)-1H-indol-2-yl)-3-methylpyrazolo[1,5-a]pyridin-6-yl)methanone]",200 nM
11,"Cc1c(-c2cc3cc(F)cc(C4CCN(C(=O)CC(C)C)CC4)c3n2CC2CC2)nn2cc(C(=O)N3C[C@H](N)C[C@@H](F)C3)ccc12 [Example 495, 1-(4-(2-(6-((3R,5R)-3-Amino-5-fluoropiperidine-1-carbonyl)-3-methylpyrazolo[1,5-a]pyridin-2-yl)-1-(cyclopropylmethyl)-5-fluoro-1H-indol-7-yl)piperidin-1-yl)-3-methylbutan-1-one]",330 nM
12,"CO[C@H](C)C(=O)N1CCC(c2cc(F)cc3cc(-c4nn5cc(C(=O)N6C[C@H](N)C[C@@H](F)C6)ccc5c4C)n(CC4CC4)c23)CC1 [Example 498, (R)-1-(4-(2-(6-((3R,5R)-3-Amino-5-fluoropiperidine-1-carbonyl)-3-methylpyrazolo[1,5-a]pyridin-2-yl)-1-(cyclopropylmethyl)-5-fluoro-1H-indol-7-yl)piperidin-1-yl)-2-methoxypropan-1-one]",70 nM
13,"CO[C@@H](C)C(=O)N1CCC(c2cc(F)cc3cc(-c4nn5cc(C(=O)N6C[C@H](N)C[C@@H](F)C6)ccc5c4C)n(CC4CC4)c23)CC1 [Example 500, (S)-1-(4-(2-(6-((3R,5R)-3-Amino-5-fluoropiperidine-1-carbonyl)-3-methylpyrazolo[1,5-a]pyridin-2-yl)-1-(cyclopropylmethyl)-5-fluoro-1H-indol-7-yl)piperidin-1-yl)-2-methoxypropan-1-one]",240 nM

# Further lines, results first:
row,IC50,Compound
1,390 nM,"CC(=O)N1CCC(c2cccc3cc(-c4nn5cc(C(=O)N6CCC[C@@H](N)C6)ccc5c4C)n(CC4CC4)c23)CC1 [Example 479, (R)-1-(4-(2-(6-(3-Aminopiperidine-1-carbonyl)-3-methylpyrazolo[1,5-a]pyridin-2-yl)-1-(cyclopropylmethyl)-1H-indol-7-yl)piperidin-1-yl)ethan-1-one]"
2,150 nM,"COc1cc(C(=O)N2CCC[C@@H](N)C2)cn2nc(-c3cc4cc(F)cc(C5CCN(C(C)=O)CC5)c4n3CC3CC3)c(C)c12 [Example 483, (R)-1-(4-(2-(6-(3-Aminopiperidine-1-carbonyl)-4-methoxy-3-methylpyrazolo[1,5-a]pyridin-2-yl)-1-(cyclopropylmethyl)-5-fluoro-1H-indol-7-yl)piperidin-1-yl)ethan-1-one]"
3,150 nM,"Cc1c(-c2cc3cc(F)cc(C4CCN(C(=O)[C@H]5CC[C@H](O)CC5)CC4)c3n2CC2CC2)nn2cc(C(=O)N3CCC[C@@H](N)C3)ccc12 [Example 484, ((R)-3-Aminopiperidin-1-yl)(2-(1-(cyclopropylmethyl)-5-fluoro-7-(1-((1r,4r)-4-hydroxycyclohexane-1-carbonyl)piperidin-4-yl)-1H-indol-2-yl)-3-methylpyrazolo[1,5-a]pyridin-6-yl)methanone]"
4,150 nM,"Cc1c(-c2cc3cc(F)cc(C4CCN(C(=O)[C@H]5CC[C@@H](O)CC5)CC4)c3n2CC2CC2)nn2cc(C(=O)N3CCC[C@@H](N)C3)ccc12 [Example 485, ((R)-3-Aminopiperidin-1-yl)(2-(1-(cyclopropylmethyl)-5-fluoro-7-(1-((1s,4s)-4-hydroxycyclohexane-1-carbonyl)piperidin-4-yl)-1H-indol-2-yl)-3-methylpyrazolo[1,5-a]pyridin-6-yl)methanone]"
5,110 nM,"COC(C)(C)C(=O)N1CCC(c2cc(F)cc3cc(-c4nn5cc(C(=O)N6CCC[C@@H](N)C6)ccc5c4C)n(CC4CC4)c23)CC1 [Example 493, (R)-1-(4-(2-(6-(3-Aminopiperidine-1-carbonyl)-3-methylpyrazolo[1,5-a]pyridin-2-yl)-1-(cyclopropylmethyl)-5-fluoro-1H-indol-7-yl)piperidin-1-yl)-2-methoxy-2-methylpropan-1-one]"
6,40 nM,"CO[C@H](C)C(=O)N1CCC(c2cc(F)cc3cc(-c4nn5cc(C(=O)N6CCC[C@@H](N)C6)ccc5c4C)n(CC4CC4)c23)CC1 [Example 497, (R)-1-(4-(2-(6-((R)-3-Aminopiperidine-1-carbonyl)-3-methylpyrazolo[1,5-a]pyridin-2-yl)-1-(cyclopropylmethyl)-5-fluoro-1H-indol-7-yl)piperidin-1-yl)-2-methoxypropan-1-one]"
7,150 nM,"CO[C@@H](C)C(=O)N1CCC(c2cc(F)cc3cc(-c4nn5cc(C(=O)N6CCC[C@@H](N)C6)ccc5c4C)n(CC4CC4)c23)CC1 [Example 499, (S)-1-(4-(2-(6-((R)-3-Aminopiperidine-1-carbonyl)-3-methylpyrazolo[1,5-a]pyridin-2-yl)-1-(cyclopropylmethyl)-5-fluoro-1H-indol-7-yl)piperidin-1-yl)-2-methoxypropan-1-one]"
8,130 nM,"COC(C)(C)C(=O)N1CCC(c2cc(F)cc3cc(-c4nn5cc(C(=O)N6C[C@H](N)C[C@@H](F)C6)ccc5c4C)n(CC4CC4)c23)CC1 [Example 501, 1-(4-(2-(6-((3R,5R)-3-Amino-5-fluoropiperidine-1-carbonyl)-3-methylpyrazolo[1,5-a]pyridin-2-yl)-1-(cyclopropylmethyl)-5-fluoro-1H-indol-7-yl)piperidin-1-yl)-2-methoxy-2-methylpropan-1-one]"
9,70 nM,"COCC(=O)N1CCC(c2cc(F)cc3cc(-c4nn5cc(C(=O)N6CCC[C@@H](N)C6)ccc5c4C)n(CC4CC4)c23)CC1 [Example 502, (R)-1-(4-(2-(6-(3-Aminopiperidine-1-carbonyl)-3-methylpyrazolo[1,5-a]pyridin-2-yl)-1-(cyclopropylmethyl)-5-fluoro-1H-indol-7-yl)piperidin-1-yl)-2-methoxyethan-1-one]"
